The values below come from publication PMC11007943 (BMC Chemistry, 2024).

For data set [1], the target named is T1, AChE (Homo sapiens, UniProt P22303). The conditions noted are these: read-out: IC50 against AChE; cited from earlier work.
For data set [2], the target named is T2, BChE (Homo sapiens, UniProt P06276). The conditions noted are these: read-out: IC50 against BChE; cited from earlier work.
The conditions of data set [3]: cited from earlier work.
Data set [4] addresses T1, AChE. Nature of the data set: biochemical. The data set is classed as biochemical. To be noted: for inhibition at 50 µM: mean ± S.E.
Data set [5] addresses T2, BChE. Nature of the data set: BChE inhibition, modified Ellman's method. The class given is biochemical. The method, then: Cholinesterase inhibitory activities of all derivatives were assessed using the modified Ellman’s method. Briefly, 20 µL AChE 0.18 units/mL, or 20 µL BChE 0.162 units/mL, and 20 µL DTNB (301 μM) were added to 200 μL sodium phosphate buffer (0.1 mol/L, pH = 7.4) in separate wells of a 96-well microplate and gently mixed. […]. The absorbance of each well was measured at 415 nm using a microplate reader. IC50 and inhibition values were calculated with the software curve expert as the mean of three independent experiments and expressed as mean ± SEM [25, 26].
(In Ellman's method for cholinesterases, released thiocholine reacts with DTNB.)

Data set [6] deals with T2, BChE. Nature of the data set: Enzyme kinetic study against BChE (Lineweaver–Burk and secondary plots). The class given is biochemical. An excerpt: […]. As the concentration of inhibitor 4k increased, the Michaelis–Menten constant (Km) increased, and the maximum reaction rate (Vmax) remained unaffected.
The Ki value provides important information about the strength of the interaction between the inhibitor and the enzyme (Fig. 4).
[…]. A Lineweaver–Burk plot was generated to determine the inhibition type and calculate the Michaelis–Menten constant (Km). Secondary plots were constructed to determine the experimental inhibitor constant (Ki).

[7] abbreviates: mean ± S.E, read-out: BChE (IC50).
The mark [8] stands for this setting: single graphs behind the mean BChE IC50 of Table 2, read-out: IC50 (individual IC50 graphs, Table S1).

Where “and” joins values, the source holds several entries; their conditions need not be identical. Identical values can stand only once. Entries after “also recorded” stand apart in the source; their conditions may differ. Like-named read-outs stand apart in the source and are kept apart here.

T1 sequence (P22303 32-614): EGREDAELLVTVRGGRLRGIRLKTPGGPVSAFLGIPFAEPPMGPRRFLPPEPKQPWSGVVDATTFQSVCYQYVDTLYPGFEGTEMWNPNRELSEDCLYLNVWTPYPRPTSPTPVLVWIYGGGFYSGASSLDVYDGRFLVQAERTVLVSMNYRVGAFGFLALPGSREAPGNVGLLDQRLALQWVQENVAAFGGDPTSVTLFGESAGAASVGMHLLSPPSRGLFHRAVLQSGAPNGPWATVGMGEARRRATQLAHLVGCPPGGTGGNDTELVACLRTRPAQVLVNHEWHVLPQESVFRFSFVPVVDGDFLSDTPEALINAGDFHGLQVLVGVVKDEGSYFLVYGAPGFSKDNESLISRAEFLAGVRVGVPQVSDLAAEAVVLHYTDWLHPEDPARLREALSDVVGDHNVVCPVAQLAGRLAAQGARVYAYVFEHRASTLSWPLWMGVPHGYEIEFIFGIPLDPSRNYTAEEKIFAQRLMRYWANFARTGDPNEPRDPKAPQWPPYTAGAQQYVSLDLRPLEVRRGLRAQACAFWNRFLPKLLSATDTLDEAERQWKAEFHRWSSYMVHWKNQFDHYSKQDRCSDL
T2 sequence (P06276 29-602): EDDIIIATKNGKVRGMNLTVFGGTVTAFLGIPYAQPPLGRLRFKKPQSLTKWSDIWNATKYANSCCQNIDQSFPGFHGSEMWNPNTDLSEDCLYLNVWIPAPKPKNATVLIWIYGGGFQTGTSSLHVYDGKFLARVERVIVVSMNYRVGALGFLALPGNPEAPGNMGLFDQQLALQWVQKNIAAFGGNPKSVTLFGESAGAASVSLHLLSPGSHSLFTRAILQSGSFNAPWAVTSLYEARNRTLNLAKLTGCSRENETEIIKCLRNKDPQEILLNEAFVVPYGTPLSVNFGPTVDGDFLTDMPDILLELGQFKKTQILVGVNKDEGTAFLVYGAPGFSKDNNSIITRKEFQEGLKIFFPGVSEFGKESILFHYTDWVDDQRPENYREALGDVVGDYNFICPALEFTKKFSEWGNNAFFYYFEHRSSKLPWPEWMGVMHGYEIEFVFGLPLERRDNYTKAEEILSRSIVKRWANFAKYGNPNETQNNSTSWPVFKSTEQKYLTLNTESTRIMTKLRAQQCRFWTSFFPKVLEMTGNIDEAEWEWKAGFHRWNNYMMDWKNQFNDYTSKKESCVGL

For orientation: IC50 means the concentration needed to halve the response being measured. Take `O=C(NCCCCCCCCCCNc1c2c(nc3ccccc13)CCCC2)c1cc(=O)c2cc(O)ccc2o1` [E]: the IC50 in data set [1] was 8 ± 0.2 µM; in data set [2], 1.5 ± 0.04 µM. For the same compound, the BBB permeability in data set [3] is on record as 23.1 ± 0.1 × 10^−6 cm s^−1.

The inhibition is the share of the control response that was lost under treatment. As for `COc1cc(C2C(C#N)=C(N)OC3=C2C(=O)CCC3)ccc1OCc1cccc(Cl)c1` (stereo not drawn) [Compound 4m, A-amino-4-{4-[(3-chlorobenzyl)oxy]-3-methoxyphenyl}-5-oxo-5,6,7,8-tetrahydro-4H-chromene-3-carbonitrile], the inhibition at 50 µM amounted to 12.9 ± 1.27% in data set [4] and 69.7 ± 1.52% in data set [5] (mean ± S.E). The IC50 was 1.51 ± 0.2 µM in data set [5] (setting [7]); 1.65 µM and 1.36 µM in data set [5] (read-out: IC50 (individual IC50 graphs, Table S1)).

On to `COc1cc(C2C(C#N)=C(N)OC3=C2C(=O)CCC3)ccc1OCc1cccc(F)c1` (stereo not drawn) [Compound 4l, 2-Amino-4-{4-[(3-fluorobenzyl)oxy]-3-methoxyphenyl}-5-oxo-5,6,7,8-tetrahydro-4H-chromene-3-carbonitrile], for which the values for the inhibition at 50 µM in data set [4] and in data set [5] (mean ± S.E) were 33.6 ± 3.29% and 76.1 ± 0.88%, respectively. The 50% inhibitory concentration (IC50) was 2.63 ± 0.19 µM in data set [5] (setting [7]); 2.77 µM and 2.49 µM in data set [5] (setting [8]).

Regarding `N#CC1=C(N)OC2=C(C(=O)CCC2)C1c1ccc(OCCN2CCCCC2)cc1` (stereo not drawn) [G], the IC50 in data set [1] is 20.4 ± 9.3 µM; in data set [2], 8.1 ± 0.5 µM.

With `N#CC1=C(N)OC2=C(C(=O)CCC2)C1c1ccccc1OCc1ccc(Cl)cc1` (stereo not drawn) [Compound 4h, 2-Amino-4-{2-[(4-chlorobenzyl)oxy]phenyl}-5-oxo-5,6,7,8-tetrahydro-4H-chromene-3-carbonitrile], the inhibition at 50 µM in data set [4] was found to be 7.35 ± 0.56%; in data set [5] (mean ± S.E), 21.3 ± 2.69%.

`N#CC1=C(N)OC2=C(C(=O)CCC2)C1c1ccc(OCCN2CCOCC2)cc1` (stereo not drawn) [Compound 4e, 2-Amino-4-[4-(2-morpholinoethoxy)phenyl]-5-oxo-5,6,7,8-tetrahydro-4Hchromene-3-carbonitrile]: the inhibition at 50 µM was determined as 34.4 ± 3.1% in data set [4] and 58.9 ± 0.93% in data set [5] (mean ± S.E). In addition, the IC50 in data set [5] (setting [7]) is 26.3 ± 3.34 µM; in data set [5] (setting [8]), 28.7 µM and 24 µM.

As to `N#CC1=C(N)OC2=C(C(=O)CCC2)C1c1ccc(OCc2ccc(Cl)cc2)cc1` (stereo not drawn) [Compound 4c, 2-Amino-4-{4-[(4-chlorobenzyl)oxy]phenyl}-5-oxo-5,6,7,8-tetrahydro-4Hchromene-3-carbonitrile], the inhibition at 50 µM is 23.6 ± 1.2% in data set [4] and 77.7 ± 3.77% in data set [5] (mean ± S.E). The IC50 is 0.89 ± 0.24 µM in data set [5] (setting [7]); 1.07 µM and 0.72 µM in data set [5] (setting [8]).

With `CCOc1ccc2c(c1)OC/C(=C\c1ccc(OCCN3CCCCC3)cc1)C2=O` [A], in data set [2], the IC50 is 0.854 ± 0.04 µM.

As to `N#CC1=C(N)OC2=C(C(=O)CCC2)C1c1ccc([N+](=O)[O-])cc1` (stereo not drawn) [Compound 4b, 2-Amino-4-(4-nitrophenyl)-5-oxo-5,6,7,8-tetrahydro-4H-chromene-3-carbonitrile], the inhibition at 50 µM was found to be 28.9 ± 2.56% in data set [4] and 58.7 ± 1.18% in data set [5] (mean ± S.E). In addition, the 50% inhibitory concentration (IC50) in data set [5] (setting [7]) was 27.4 ± 2.01 µM; in data set [5] (setting [8]), 28.8 µM and 26 µM.

As to `N#CC1=C(N)OC2=C(C(=O)CCC2)C1c1cccc(OCc2ccc(Cl)cc2)c1` (stereo not drawn) [Compound 4f, 2-Amino-4-{3-[(4-chlorobenzyl)oxy]phenyl}-5-oxo-5,6,7,8-tetrahydro-4H-chromene-3-carbonitrile], in data set [4], the “inhibitory activity against AChE (in words)” value was “nearly inactive”. For the same compound, the inhibition at 50 µM in data set [4] came to 4.42 ± 0.57%; in data set [5] (mean ± S.E), 62 ± 7.24%. Further, the half-inhibitory concentration (IC50) in data set [5] (setting [7]) was 5.7 ± 0.68 µM; in data set [5] (setting [8]), 6.18 µM and 5.21 µM.

For the compound `N#CC1=C(N)OC2=C(C(=O)CCC2)C1c1ccc(OCc2ccc(Br)cc2)cc1` (stereo not drawn) [Compound 4d, 2-Amino-4-{4-[(4-bromobenzyl)oxy]phenyl}-5-oxo-5,6,7,8-tetrahydro-4Hchromene-3-carbonitrile], the results for the inhibition at 50 µM in data set [4] and in data set [5] (mean ± S.E) were 23.4 ± 1% and 67.8 ± 1.7%, respectively. Besides, the half-maximal inhibitory concentration (IC50) was 1.19 ± 0.31 µM in data set [5] (setting [7]); 1.41 µM and 0.97 µM in data set [5] (setting [8]).

With `N#CC1=C(N)OC2=C(C(=O)CCC2)C1c1cccc(OCc2ccc(Br)cc2)c1` (stereo not drawn) [Compound 4g, 2-Amino-4-{3-[(4-bromobenzyl)oxy]phenyl}-5-oxo-5,6,7,8-tetrahydro-4Hchromene-3-carbonitrile], the “inhibitory activity against AChE (in words)” value in data set [4] was “nearly inactive”. The inhibition at 50 µM came out at 15 ± 2.59% in data set [4] and 57.3 ± 9.75% in data set [5] (mean ± S.E). The IC50 in data set [5] (setting [7]) was 13.1 ± 2.59 µM; in data set [5] (setting [8]) it was 11.2 µM and 14.9 µM.

On to `N#CC1=C(N)OC2=C(C(=O)CCC2)C1c1ccccc1OCc1cccc(Cl)c1` (stereo not drawn) [Compound 4i, 2-Amino-4-{2-[(3-chlorobenzyl)oxy]phenyl}-5-oxo-5,6,7,8-tetrahydro-4H-chromene-3-carbonitrile], for which the inhibition at 50 µM in data set [4] was 19.4 ± 2.39%; in data set [5] (mean ± S.E), 42.8 ± 1.22%.

Regarding `N#CC1=C(N)Oc2c(c(=O)oc3ccccc23)C1c1cc[n+](Cc2ccc(F)cc2)cc1` (stereo not drawn) [F], the IC50 in data set [2] was 1.84 ± 0.12 µM.

One may read the Ki as a measure of affinity in units of concentration, obtained from inhibition or displacement. As to `COc1cc(C2C(C#N)=C(N)OC3=C2C(=O)CCC3)ccc1OCc1ccc(F)cc1` (stereo not drawn) [Compound 4k, 2-Amino-4-{4-[(4-fluorobenzyl)oxy]-3-methoxyphenyl}-5-oxo-5,6,7,8-tetrahydro-4H-chromene-3-carbonitrile], the inhibition at 50 µM in data set [4] came to 41.1 ± 2.33%; in data set [5] (mean ± S.E), 80.5 ± 5.08%. For the same compound, in data set [5] (setting [7]), the IC50 stood at 0.65 ± 0.13 µM. In addition, in data set [6] (Lineweaver–Burk plot, Km increased, Vmax unaffected), the type of inhibition result is recorded as “competitive-type inhibition; also recorded: competitive inhibitor”. Also, the Ki in data set [6] (from secondary plot of slopes vs inhibitor concentration, R^2 = 0.9876, read-out: Ki (inhibition constant)) stood at 0.55 µM.

Take `O=C(O)c1coc2ccc(OCc3ccccc3)cc2c1=O` [B]: the IC50 is 0.37 µM in data set [1] and 5.24 µM in data set [2]. Besides, in data set [3], the “blood–brain barrier (BBB) permeability” value is 5.4 ± 0.3 × 10^−6 cm s^−1.

As to `N#CC1=C(N)OC2=C(C(=O)CCC2)C1c1ccccc1` (stereo not drawn) [Compound 4a, 2-Amino-5-oxo-4-phenyl-5,6,7,8-tetrahydro-4H-chromene-3-carbonitrile], the inhibition at 50 µM was 21 ± 1.31% in data set [4] and 39.8 ± 1.39% in data set [5] (mean ± S.E).

As to `COc1ccc(COc2ccccc2C2C(C#N)=C(N)OC3=C2C(=O)CCC3)cc1` (stereo not drawn) [Compound 4j, 2-Amino-4-{2-[(4-methoxybenzyl)oxy]phenyl}-5-oxo-5,6,7,8-tetrahydro-4H-chromene-3-carbonitrile], the inhibition at 50 µM in data set [4] worked out at 16.3 ± 0.63%; in data set [5] (mean ± S.E) it was 38.3 ± 4.36%.
